Tests used:
[1] = system: Durum wheat M3:4 lines derived from M2 plant UT03; assay: Field Trials (2): tolerance scores at two rates of imazamox; format: in vivo; details: UT03, range across M3:4 lines
Source text: (§1) One hundred ten M3:4 lines derived from sixteen M2 plants were screened at 71 g/ha and 160 g/ha imazamox. The number of M4 lines per M2 plant varied from one to twenty. Tolerance of M3:4 lines was compared to untreated plots of the same line as well as to treated plots of a wild-type cultivar from which some of them were derived.
(§2) All tested lines survived at both rates of herbicide treatment, whereas all plants of the wild type were killed at both rates. Based on comparison to the wild type line, all lines tested expressed considerable tolerance to the applied rates, particularly when looking at height reduction relative to untreated plots. A rate of 35 g/ha imazamox is adequate to kill susceptible durum wheat.

[2] = system: Durum wheat M3:4 lines derived from M2 plant UT05; assay: as above; format: in vivo; details: UT05, range across M3:4 lines
Source text: as §1, §2

Q: COCc1cnc(C2=NC(C)(C(C)C)C(=O)N2)c(C(=O)O)c1 (stereo not shown) [imazamox] was tested. Which “% Chlorosis” value ([1]; imazamox 71 g/ha, 14 DAT) did it give?
A: 0%

Q: And the “% Height Reduction” value ([1]; imazamox 71 g/ha, 14 DAT)?
A: 10%

Q: What about the “% Chlorosis” value ([1]; imazamox 71 g/ha, 30 DAT) of the same compound?
A: 5%

Q: What about the “% Height Reduction” value ([1]; imazamox 71 g/ha, 30 DAT) of the same compound?
A: 5%

Q: And the “% Chlorosis” value ([1]; imazamox 160 g/ha, 14 DAT)?
A: 5%

Q: And the “% Height Reduction” value ([1]; imazamox 160 g/ha, 14 DAT)?
A: 10%

Q: And the “% Chlorosis” value ([1]; imazamox 160 g/ha, 30 DAT)?
A: 5%

Q: What about the “% Height Reduction” value ([1]; imazamox 160 g/ha, 30 DAT) of the same compound?
A: 5%

Q: What about the “% Chlorosis” value ([2]; imazamox 71 g/ha, 14 DAT) of the same compound?
A: 5-10%

Q: What about the “% Height Reduction” value ([2]; imazamox 71 g/ha, 14 DAT) of the same compound?
A: 5-10%

Q: And the “% Chlorosis” value ([2]; imazamox 71 g/ha, 30 DAT)?
A: 5-10%

Q: What about the “% Height Reduction” value ([2]; imazamox 71 g/ha, 30 DAT) of the same compound?
A: 5-10%

Q: What about the “% Chlorosis” value ([2]; imazamox 160 g/ha, 14 DAT) of the same compound?
A: 5-15%

Q: What about the “% Height Reduction” value ([2]; imazamox 160 g/ha, 14 DAT) of the same compound?
A: 10-30%

Q: And the “% Chlorosis” value ([2]; imazamox 160 g/ha, 30 DAT)?
A: 5-20%

Q: What about the “% Height Reduction” value ([2]; imazamox 160 g/ha, 30 DAT) of the same compound?
A: 5-20%

Source: US20160376605A1, “WHEAT PLANTS HAVING INCREASED TOLERANCE TO IMIDAZOLINONE HERBICIDES” (BASF SE, priority 2003, published 2016)
